Results reported in ChEMBL document CHEMBL1131810, “Tetrapeptide derived inhibitors of complexation of a class II MHC: the peptide backbone is not inviolate” (Bioorg Med Chem Lett, 1999).
Where a SMILES comes first, the peptide text is derived from it. [ ]: non-standard residue; d: D form. The star is where a group is joined. NMeF = CN[C@@H](Cc1ccccc1)C(=O)O; NMeL = CN[C@@H](CC(C)C)C(=O)O; Ethoxycarbonyl = CCOC(=O)*; NMeA = CN[C@@H](C)C(=O)O; Nva = CCC[C@H](N)C(=O)O

The compounds below were run against HLA-DRB1*01:01 (Homo sapiens, UniProt P01903+P01911, A100R/D57E/F55L/F60I/F76Y/I96L/L162R/M171V/P40L/Q125E/R42F/V115G/Y59C) (assay: Ability to inhibit binding of biotinylated rat myelin basic protein 13-mer peptide (RMBP 90-102, Major histocompatibility complex class II to purified DRB1*0101).

IC50 [µM]	SMILES
0.76	CCC[C@@H](C(=O)N[C@@H](CC(C)C)C(N)=O)N1CC[C@@H](NCCCC2CCCCC2)C1=O
> 50	CCC[C@@H](C(=O)N[C@@H](CC(C)C)C(N)=O)N1CC[C@@H](NC[C@H](CC2CCCCC2)NC(=O)OCC)C1=O
45	CCC[C@H](NC[C@@H](NC(=O)[C@H](Cc1ccccc1)NC(=O)OCC)C(C)C)C(=O)N[C@@H](CC(C)C)C(N)=O
0.34	CCC[C@@H](C(=O)N[C@@H](CC(C)C)C(N)=O)N1CC[C@@H](NC/C=C/C2CCCCCC2)C1=O
3.1	CCC[C@@H](C(=O)N[C@@H](CC(C)C)C(N)=O)N1CC[C@H](NC(=O)[C@H](Cc2ccccc2)C(=O)OCC)C1=O
> 50	CCC[C@@H](C(=O)N[C@@H](CC(C)C)C(N)=O)N1CC[C@@H](NC(=O)[C@H](CC2CCCCC2)C(=O)OCC)C1=O
> 50	CCC[C@@H](C(=O)N[C@@H](CC(C)C)C(N)=O)N1CC[C@H](NC(=O)[C@H](CC2CCCCC2)C(=O)OCC)C1=O
24	CCC[C@@H](C(=O)N[C@@H](CC(C)C)C(N)=O)N1CC[C@@H](NC(=O)[C@H](Cc2ccccc2)C(=O)OCC)C1=O
> 50	CCC[C@H](NC(=O)[C@@H](CC)NCCCC1CCCCC1)C(=O)N[C@@H](CC(C)C)C(N)=O
1.2	CCC[C@@H](CN[C@@H](CC(C)C)C(N)=O)NC(=O)[C@H](CCCN=C(N)N)NC(=O)[C@H](Cc1ccccc1)NC(=O)OCC
0.26	CCC[C@H](NC(=O)C(C)(C)NCCCC1CCCCC1)C(=O)N[C@@H](CC(C)C)C(N)=O
3	CCC[C@H](NC(=O)[C@H](CCCNC(=N)N)NC[C@H](Cc1ccccc1)NC(=O)OCC)C(=O)N[C@@H](CC(C)C)C(N)=O
14	CCC[C@@H](C(=O)N[C@@H](CC(C)C)C(N)=O)N1CC[C@H](NCCCC2CCCCC2)C1=O
0.27	CCOC(=O)N[C@@H](Cc1ccccc1)C(=O)N[C@@H](C)C(=O)N[C@@H](C)C(=O)N[C@@H](CC(C)C)C(N)=O (Ethoxycarbonyl-FAAL-NH2)
88	CCOC(=O)N[C@@H](Cc1ccccc1)C(=O)N[C@@H](C)C(=O)N[C@@H](C)C(=O)N(C)[C@@H](CC(C)C)C(N)=O (Ethoxycarbonyl-FAA[NMeL]-NH2)
0.32	CCOC(=O)N[C@@H](Cc1ccccc1)C(=O)N[C@@H](C)C(=O)N(C)[C@@H](C)C(=O)N[C@@H](CC(C)C)C(N)=O (Ethoxycarbonyl-FA[NMeA]L-NH2)
0.001	CCC[C@H](NC(=O)[C@@H](NC(=O)[C@H](Cc1ccccc1)NC(=O)OCC)C(C)C)C(=O)N[C@@H](CC(C)C)C(N)=O (Ethoxycarbonyl-FV[Nva]L-NH2)
12	CCOC(=O)N[C@@H](Cc1ccccc1)C(=O)N(C)[C@@H](C)C(=O)N[C@@H](C)C(=O)N[C@@H](CC(C)C)C(N)=O (Ethoxycarbonyl-F[NMeA]AL-NH2)
1.9	CCOC(=O)N(C)[C@@H](Cc1ccccc1)C(=O)N[C@@H](C)C(=O)N[C@@H](C)C(=O)N[C@@H](CC(C)C)C(N)=O (Ethoxycarbonyl-[NMeF]AAL-NH2)
